# In ChEMBL document CHEMBL2413072, “Synthesis and in vitro anticancer studies of novel C-2 arylidene congeners of lantadenes” (2013):
# Tests used:
# Assay type in all cases: functional
# HOP-92 [1] = experiment: Growth inhibition of human HOP92 cells assessed as cell growth at 10^-6 M by sulforhodamine B assay; conditions: read-out: Activity
# OVCAR-5 = experiment: Growth inhibition of human OVCAR5 cells assessed as cell growth at 10^-6 M by sulforhodamine B assay; conditions: read-out: Activity
# PC-3 = experiment: Growth inhibition of human PC3 cells assessed as cell growth at 10^-4 M by sulforhodamine B assay; conditions: read-out: Activity
# MOLT-4 [2] = experiment: Growth inhibition of human MOLT4 cells assessed as cell growth at 10^-6 M by sulforhodamine B assay; conditions: read-out: Activity
# [3] = Growth inhibition of human HCC2998 cells assessed as cell growth at 10^-7 M by sulforhodamine B assay; conditions: HCC 2998, read-out: Activity
# U-251 = experiment: Growth inhibition of human U251 cells assessed as cell growth at 10^-8 M by sulforhodamine B assay; conditions: read-out: Activity
# CAKI-1 [4] = experiment: Growth inhibition of human CAKI-1 cells by sulforhodamine B assay
# HT-29 = experiment: Growth inhibition of human HT-29 cells assessed as cell growth at 10^-7 M by sulforhodamine B assay; conditions: read-out: Activity
# NCI-H460 [5] = experiment: Growth inhibition of human NCI-H460 cells assessed as cell growth at 10^-4 M by sulforhodamine B assay; conditions: read-out: Activity
# HCT-15 [6] = experiment: Growth inhibition of human HCT15 cells assessed as cell growth at 10^-8 M by sulforhodamine B assay; conditions: read-out: Activity
# Malme-3M [7] = experiment: Growth inhibition of human MALME-3M cells assessed as cell growth at 10^-4 M by sulforhodamine B assay; conditions: read-out: Activity
# HCT-15 [8] = experiment: Growth inhibition of human HCT15 cells assessed as cell growth at 10^-7 M by sulforhodamine B assay; conditions: read-out: Activity
# ACHN = experiment: Growth inhibition of human ACHN cells assessed as cell growth at 10^-4 M by sulforhodamine B assay; conditions: read-out: Activity
# Malme-3M [9] = experiment: Growth inhibition of human MALME-3M cells assessed as cell growth at 10^-6 M by sulforhodamine B assay; conditions: read-out: Activity
# DU-145 = experiment: Growth inhibition of human DU145 cells assessed as cell growth at 10^-6 M by sulforhodamine B assay; conditions: read-out: Activity
# NCI-H226 = experiment: Growth inhibition of human NCI-H226 cells assessed as cell growth at 10^-4 M by sulforhodamine B assay; conditions: read-out: Activity
# SK-MEL-5 [10] = experiment: Growth inhibition of human SK-MEL-5 cells by sulforhodamine B assay
# NCI-H460 [11] = experiment: Growth inhibition of human NCI-H460 cells assessed as cell growth at 10^-6 M by sulforhodamine B assay; conditions: read-out: Activity
# HOP-62 [12] = experiment: Growth inhibition of human HOP62 cells assessed as cell growth at 10^-4 M by sulforhodamine B assay; conditions: read-out: Activity
# MOLT-4 [13] = experiment: Growth inhibition of human MOLT4 cells by sulforhodamine B assay
# SF-295 = experiment: Growth inhibition of human SF295 cells assessed as cell growth at 10^-6 M by sulforhodamine B assay; conditions: read-out: Activity
# NCI-H322M = experiment: Growth inhibition of human NCI-H322M cells by sulforhodamine B assay
# SF-268 = experiment: Growth inhibition of human SF268 cells assessed as cell growth at 10^-7 M by sulforhodamine B assay; conditions: read-out: Activity
# MCF7 [14] = experiment: Growth inhibition of human MCF7 cells assessed as cell growth at 10^-8 M by sulforhodamine B assay; conditions: read-out: Activity
# LOX IMVI = experiment: Growth inhibition of human LOXIMVI cells assessed as cell growth at 10^-8 M by sulforhodamine B assay; conditions: read-out: Activity
# UO-31 [15] = experiment: Growth inhibition of human UO31 cells assessed as cell growth at 10^-8 M by sulforhodamine B assay; conditions: read-out: Activity
# SW-620 = experiment: Growth inhibition of human SW620 cells assessed as cell growth at 10^-8 M by sulforhodamine B assay; conditions: read-out: Activity
# MCF7 [16] = experiment: Growth inhibition of human MCF7 cells assessed as cell growth at 10^-7 M by sulforhodamine B assay; conditions: read-out: Activity
# UO-31 [17] = experiment: Growth inhibition of human UO31 cells by sulforhodamine B assay
# SK-MEL-28 = experiment: Growth inhibition of human SK-MEL-28 cells by sulforhodamine B assay
# HOP-92 [18] = experiment: Growth inhibition of human HOP92 cells assessed as cell growth at 10^-8 M by sulforhodamine B assay; conditions: read-out: Activity
# SN12C = experiment: Growth inhibition of human SN12C cells by sulforhodamine B assay
# Malme-3M [19] = experiment: Growth inhibition of human MALME-3M cells by sulforhodamine B assay
# 786-0 = experiment: Growth inhibition of human 786-0 cells assessed as cell growth at 10^-6 M by sulforhodamine B assay; conditions: read-out: Activity
# CAKI-1 [20] = experiment: Growth inhibition of human CAKI-1 cells assessed as cell growth at 10^-6 M by sulforhodamine B assay; conditions: read-out: Activity
# UO-31 [21] = experiment: Growth inhibition of human UO31 cells assessed as cell growth at 10^-4 M by sulforhodamine B assay; conditions: read-out: Activity
# HOP-62 [22] = experiment: Growth inhibition of human HOP62 cells assessed as cell growth at 10^-7 M by sulforhodamine B assay; conditions: read-out: Activity
# SNB-19 = experiment: Growth inhibition of human SNB19 cells assessed as cell growth at 10^-7 M by sulforhodamine B assay; conditions: read-out: Activity
# SK-MEL-5 [23] = experiment: Growth inhibition of human SK-MEL-5 cells assessed as cell growth at 10^-8 M by sulforhodamine B assay; conditions: read-out: Activity
# SK-MEL-2 = experiment: Growth inhibition of human SK-MEL-2 cells assessed as cell growth at 10^-7 M by sulforhodamine B assay; conditions: read-out: Activity
# [24] = read-out: LC50 (the source's name)
# [25] = read-out: pLC50 (the source's name) (converted)
smiles,measurement,setting,value
CC(C)=CC(=O)O[C@@H]1CC(C)(C)C[C@H]2C3=CC[C@@H]4[C@@]5(C)CCC(=O)C(C)(C)[C@@H]5CC[C@@]4(C)[C@]3(C)CC[C@@]12C(=O)O,growth at 1 µM,HOP-92 [1],69%
same,growth at 1 µM,OVCAR-5,86%
same,growth at 100 µM,PC-3,-1%
same,growth at 1 µM,MOLT-4 [2],85%
same,growth at 0.1 µM,[3],96%
same,growth at 0.01 µM,U-251,92%
same,GI50,CAKI-1 [4]; read-out: GI50,3.84 µM
same,CC50,CAKI-1 [4]; [24],> 100 µM
same,TGI,CAKI-1 [4]; read-out: TGI,84.8 µM
same,GI50,CAKI-1 [4]; read-out: pGI50 (converted),3.8 µM
same,CC50,CAKI-1 [4]; [25],> 100 µM
same,TGI,CAKI-1 [4]; read-out: pTGI (converted),85.1 µM
same,growth at 0.1 µM,HT-29,95%
same,growth at 100 µM,NCI-H460 [5],-54%
same,growth at 0.01 µM,HCT-15 [6],93%
same,growth at 100 µM,Malme-3M [7],-5%
same,growth at 0.1 µM,HCT-15 [8],86%
same,growth at 100 µM,ACHN,-31%
same,growth at 1 µM,Malme-3M [9],91%
same,growth at 1 µM,DU-145,90%
same,growth at 100 µM,NCI-H226,12%
same,GI50,SK-MEL-5 [10]; read-out: GI50,1.5 µM
same,CC50,SK-MEL-5 [10]; [24],46.2 µM
same,TGI,SK-MEL-5 [10]; read-out: TGI,11.7 µM
same,GI50,SK-MEL-5 [10]; read-out: pGI50 (converted),1.51 µM
same,CC50,SK-MEL-5 [10]; [25],45.7 µM
same,TGI,SK-MEL-5 [10]; read-out: pTGI (converted),11.7 µM
same,growth at 1 µM,NCI-H460 [11],71%
same,growth at 100 µM,HOP-62 [12],-21%
same,GI50,MOLT-4 [13]; read-out: GI50,2.92 µM
same,CC50,MOLT-4 [13]; [24],> 100 µM
same,TGI,MOLT-4 [13]; read-out: TGI,20.6 µM
same,GI50,MOLT-4 [13]; read-out: pGI50 (converted),2.95 µM
same,CC50,MOLT-4 [13]; [25],> 100 µM
same,TGI,MOLT-4 [13]; read-out: pTGI (converted),20.4 µM
same,growth at 1 µM,SF-295,63%
same,GI50,NCI-H322M; read-out: GI50,2.87 µM
same,LC50 (50% lethal concentration),NCI-H322M; read-out: LC50,> 100 µM
same,TGI,NCI-H322M; read-out: TGI,19.9 µM
same,GI50,NCI-H322M; read-out: pGI50 (converted),2.88 µM
same,LC50 (50% lethal concentration),NCI-H322M; read-out: pLC50 (converted),> 100 µM
same,TGI,NCI-H322M; read-out: pTGI (converted),20 µM
same,growth at 0.1 µM,SF-268,94%
same,growth at 0.01 µM,MCF7 [14],87%
same,growth at 0.01 µM,LOX IMVI,98%
same,growth at 0.01 µM,UO-31 [15],88%
same,growth at 0.01 µM,SW-620,100%
same,growth at 0.1 µM,MCF7 [16],90%
same,GI50,UO-31 [17]; read-out: GI50,2.95 µM
same,CC50,UO-31 [17]; [24],> 100 µM
same,TGI,UO-31 [17]; read-out: TGI,32.2 µM
same,GI50,UO-31 [17]; read-out: pGI50 (converted),2.95 µM
same,CC50,UO-31 [17]; [25],> 100 µM
same,TGI,UO-31 [17]; read-out: pTGI (converted),32.4 µM
same,GI50,SK-MEL-28; read-out: GI50,11.6 µM
same,CC50,SK-MEL-28; [24],> 100 µM
same,TGI,SK-MEL-28; read-out: TGI,> 100 µM
same,GI50,SK-MEL-28; read-out: pGI50 (converted),11.7 µM
same,CC50,SK-MEL-28; [25],> 100 µM
same,TGI,SK-MEL-28; read-out: pTGI (converted),> 100 µM
same,growth at 0.01 µM,HOP-92 [18],97%
same,GI50,SN12C; read-out: GI50,3.12 µM
same,CC50,SN12C; [24],> 100 µM
same,TGI,SN12C; read-out: TGI,21.8 µM
same,GI50,SN12C; read-out: pGI50 (converted),3.09 µM
same,CC50,SN12C; [25],> 100 µM
same,TGI,SN12C; read-out: pTGI (converted),21.9 µM
same,GI50,Malme-3M [19]; read-out: GI50,11.4 µM
same,CC50,Malme-3M [19]; [24],> 100 µM
same,TGI,Malme-3M [19]; read-out: TGI,81 µM
same,GI50,Malme-3M [19]; read-out: pGI50 (converted),11.5 µM
same,CC50,Malme-3M [19]; [25],> 100 µM
same,TGI,Malme-3M [19]; read-out: pTGI (converted),81.3 µM
same,growth at 1 µM,786-0,92%
same,growth at 1 µM,CAKI-1 [20],87%
same,growth at 100 µM,UO-31 [21],-13%
same,growth at 0.1 µM,HOP-62 [22],97%
same,growth at 0.1 µM,SNB-19,88%
same,growth at 0.01 µM,SK-MEL-5 [23],99%
same,growth at 0.1 µM,SK-MEL-2,94%
